# Species on record: Rattus norvegicus
# Assay: Open TG-GATES - Regimen: Daily Repeat
# Type: toxicity, organism-based, Sprague-Dawley
# Parameters: regimen Daily Repeat, gender Male, age 6 weeks
# Details: in vivo, po, 800 mg/kg, route gavage, dose level High; for Bas / Eos / Fbg / Ht / Lym / MCHC / MCV / Mono / Neu / PT / Plat / RBC / Ret / WBC: tissue Blood; for KIDNEY_L / KIDNEY_R / KIDNEY_TOTAL: tissue Kidney; for ALT / AST / CRE / Ca / Cl / DBIL / GLC / IP / K / LDH / Na / PL / RALB / TBIL / TC / TG / TP / gamma-GTP / BUN: tissue Plasma
structure (smiles),measurement,setting,value
COc1ccc([C@@H]2Sc3ccccc3N(CCN(C)C)C(=O)[C@@H]2OC(C)=O)cc1 [DILTIAZEM],Bas,"72 h, time 3 day",0%
same,Eos,"72 h, time 3 day",1%
same,Fbg,"72 h, time 3 day",277 mg/dL
same,Ht,"72 h, time 3 day",41.8%
same,Lym,"72 h, time 3 day",71.4%
same,MCHC,"72 h, time 3 day",33.3%
same,MCV,"72 h, time 3 day",64.5 fL
same,Mono,"72 h, time 3 day",2.6%
same,Neu,"72 h, time 3 day",24.2%
same,PT,"72 h, time 3 day",14 s
same,Plat,"72 h, time 3 day",141.9 x10_4/uL
same,RBC,"72 h, time 3 day",651.2 x10_4/ul
same,Ret,"72 h, time 3 day",7.5%
same,WBC,"72 h, time 3 day",87.5 x10_2/uL
same,KIDNEY_L,"72 h, time 3 day",0.9 g
same,KIDNEY_R,"72 h, time 3 day",0.9 g
same,KIDNEY_TOTAL,"72 h, time 3 day",1.8 g
same,ALT,"72 h, time 3 day",36.4 IU/L
same,AST,"72 h, time 3 day",61.8 IU/L
same,CRE,"72 h, time 3 day",0.2 mg/dL
same,Ca,"72 h, time 3 day",11 mg/dL
same,Cl,"72 h, time 3 day",106.6 meq/L
same,DBIL,"72 h, time 3 day",0.014 mg/dL
same,GLC,"72 h, time 3 day",161.8 mg/dL
same,IP,"72 h, time 3 day",8 mg/dL
same,K,"72 h, time 3 day",4 meq/L
same,LDH,"72 h, time 3 day",76.6 IU/L
same,Na,"72 h, time 3 day",143.6 meq/L
same,PL,"72 h, time 3 day",151.4 mg/dL
same,RALB,"72 h, time 3 day",2.6 g/dL
same,TBIL,"72 h, time 3 day",0.012 mg/dL
same,TC,"72 h, time 3 day",92.2 mg/dL
same,TG,"72 h, time 3 day",96.6 mg/dL
same,TP,"72 h, time 3 day",5.4 g/dL
same,gamma-GTP,"72 h, time 3 day",1 IU/L
same,TERMINAL_BW,"[…], time 7 day",242.9 g
same,TERMINAL_BW,"[…], time 14 day",272.9 g
same,TERMINAL_BW,"[…], time 28 day",390.8 g
same,Bas,"[…], time 7 day",0%
same,Eos,"[…], time 7 day",0.6%
same,Fbg,"[…], time 7 day",312.6 mg/dL
same,Ht,"[…], time 7 day",40.7%
same,Lym,"[…], time 7 day",70.6%
same,MCHC,"[…], time 7 day",33.3%
same,MCV,"[…], time 7 day",63.4 fL
same,Mono,"[…], time 7 day",2.8%
same,Neu,"[…], time 7 day",25.4%
same,PT,"[…], time 7 day",14.6 s
same,Plat,"[…], time 7 day",130.6 x10_4/uL
same,RBC,"[…], time 7 day",641.4 x10_4/ul
same,Ret,"[…], time 7 day",6.3%
same,WBC,"[…], time 7 day",99.7 x10_2/uL
same,Bas,"[…], time 14 day",0%
same,Eos,"[…], time 14 day",0.6%
same,Fbg,"[…], time 14 day",373.6 mg/dL
same,Ht,"[…], time 14 day",45.5%
same,Lym,"[…], time 14 day",73.2%
same,MCHC,"[…], time 14 day",33.4%
same,MCV,"[…], time 14 day",59.8 fL
same,Mono,"[…], time 14 day",3.4%
same,Neu,"[…], time 14 day",21.4%
same,PT,"[…], time 14 day",14.1 s
same,Plat,"[…], time 14 day",133.1 x10_4/uL
same,RBC,"[…], time 14 day",760 x10_4/ul
same,Ret,"[…], time 14 day",4%
same,WBC,"[…], time 14 day",108.8 x10_2/uL
same,Bas,"[…], time 28 day",0.2%
same,Eos,"[…], time 28 day",1%
same,Fbg,"[…], time 28 day",281.5 mg/dL
same,Ht,"[…], time 28 day",45.1%
same,Lym,"[…], time 28 day",64.8%
same,MCHC,"[…], time 28 day",34.1%
same,MCV,"[…], time 28 day",58.1 fL
same,Mono,"[…], time 28 day",3.2%
same,Neu,"[…], time 28 day",30.2%
same,PT,"[…], time 28 day",14.5 s
same,Plat,"[…], time 28 day",116.2 x10_4/uL
same,RBC,"[…], time 28 day",777.2 x10_4/ul
same,Ret,"[…], time 28 day",3.3%
same,WBC,"[…], time 28 day",123.1 x10_2/uL
same,KIDNEY_L,"[…], time 7 day",1 g
same,KIDNEY_R,"[…], time 7 day",1 g
same,KIDNEY_TOTAL,"[…], time 7 day",2 g
same,KIDNEY_L,"[…], time 14 day",1.2 g
same,KIDNEY_R,"[…], time 14 day",1.2 g
same,KIDNEY_TOTAL,"[…], time 14 day",2.4 g
same,KIDNEY_L,"[…], time 28 day",1.5 g
same,KIDNEY_R,"[…], time 28 day",1.5 g
same,KIDNEY_TOTAL,"[…], time 28 day",2.9 g
same,ALT,"[…], time 7 day",50 IU/L
same,AST,"[…], time 7 day",70.6 IU/L
same,CRE,"[…], time 7 day",0.2 mg/dL
same,Ca,"[…], time 7 day",11.3 mg/dL
same,Cl,"[…], time 7 day",105.6 meq/L
same,DBIL,"[…], time 7 day",0.006 mg/dL
same,GLC,"[…], time 7 day",187 mg/dL
same,IP,"[…], time 7 day",8.3 mg/dL
same,K,"[…], time 7 day",4 meq/L
same,LDH,"[…], time 7 day",101.6 IU/L
same,Na,"[…], time 7 day",144.8 meq/L
same,PL,"[…], time 7 day",145 mg/dL
same,RALB,"[…], time 7 day",2.7 g/dL
same,TBIL,"[…], time 7 day",0.004 mg/dL
same,TC,"[…], time 7 day",87.2 mg/dL
same,TG,"[…], time 7 day",59.6 mg/dL
same,TP,"[…], time 7 day",5.7 g/dL
same,gamma-GTP,"[…], time 7 day",1.2 IU/L
same,ALT,"[…], time 14 day",61.6 IU/L
same,AST,"[…], time 14 day",115.4 IU/L
same,BUN,"[…], time 14 day",16 mg/dL
same,CRE,"[…], time 14 day",0.2 mg/dL
same,Ca,"[…], time 14 day",10.7 mg/dL
same,DBIL,"[…], time 14 day",0.008 mg/dL
same,GLC,"[…], time 14 day",166.2 mg/dL
same,IP,"[…], time 14 day",7.2 mg/dL
same,K,"[…], time 14 day",4 meq/L
same,LDH,"[…], time 14 day",96.2 IU/L
same,Na,"[…], time 14 day",146.4 meq/L
same,PL,"[…], time 14 day",152.8 mg/dL
same,RALB,"[…], time 14 day",2.8 g/dL
same,TBIL,"[…], time 14 day",0.004 mg/dL
same,TC,"[…], time 14 day",99.2 mg/dL
same,TG,"[…], time 14 day",66.4 mg/dL
same,TP,"[…], time 14 day",6.1 g/dL
same,gamma-GTP,"[…], time 14 day",1 IU/L
same,ALT,"[…], time 28 day",52.5 IU/L
same,AST,"[…], time 28 day",64 IU/L
same,BUN,"[…], time 28 day",17.2 mg/dL
same,CRE,"[…], time 28 day",0.2 mg/dL
same,Ca,"[…], time 28 day",11.4 mg/dL
same,Cl,"[…], time 28 day",105.8 meq/L
same,DBIL,"[…], time 28 day",0.01 mg/dL
same,GLC,"[…], time 28 day",174.8 mg/dL
same,IP,"[…], time 28 day",7.2 mg/dL
same,K,"[…], time 28 day",3.9 meq/L
same,LDH,"[…], time 28 day",74.8 IU/L
same,Na,"[…], time 28 day",145.8 meq/L
same,PL,"[…], time 28 day",154 mg/dL
same,RALB,"[…], time 28 day",3 g/dL
same,TBIL,"[…], time 28 day",0.0025 mg/dL
same,TC,"[…], time 28 day",85.8 mg/dL
same,TG,"[…], time 28 day",72.2 mg/dL
same,TP,"[…], time 28 day",6.4 g/dL
same,gamma-GTP,"[…], time 28 day",2.2 IU/L
